Reference: patent US11819488B2, “Nanosuspensions of salsalate and methods of using the same” (RHNanoPharma, priority 2018, dated 2023)

How the values were obtained:
[1] = Particle size analysis, Horiba light scattering; oral excipient screen (Example 1); format: physicochemical; conditions: unmilled aqueous suspension of 5% salsalate, FIG. 1B
Description: The pH of salsalate in water was slightly below 4, so no pH adjustment was attempted. The samples were analyzed using Horiba light scattering particle size distributions (PSD). One of several acceptable formulations was selected to scale up to a higher concentration of API using high speed media milling. […] Eight different aqueous nanosuspensions of salsalate, with differing surfactants or combinations of surfactants, were prepared and analyzed for particle size. The first 7 formulations were made by roller milling with a Roller-Mill RM20 (ZOZ GmbH) with YTZ-800 grinding media (Tosoh Corp.) at 192 rpm. The 8th formulation was made via high speed media milling (5000 rpm). The particle sizes of the resultant compositions were then analyzed using a Horiba light scattering particle size analyzer. The compositions and results of the particle size analyses are shown below in Table 2 and in FIGS. 2A, 2B, 3A, 3B etc. through 9A and 9B.

pH of salsalate in water = format: physicochemical
Description: The pH of salsalate in water was slightly below 4, so no pH adjustment was attempted. The samples were analyzed using Horiba light scattering particle size distributions (PSD). One of several acceptable formulations was selected to scale up to a higher concentration of API using high speed media milling.

[2] = in terms of salicylic acid equivalents; cited from earlier work
[3] = studies of 3 weeks or more in duration; cited from earlier work
[4] = non-nano salsalate 3.0, 3.5, 4.0 g/d vs placebo, type two diabetes, P=0.003, FIG. 28A; cited from earlier work

- D90 particle size [1]: 435 μm
- mean particle size [1]: 244 μm
- median particle size [1]: 222.24 μm
- pH of salsalate in water (pH of salsalate in water): below 4
SMILES: O=C(Oc1ccccc1C(=O)O)c1ccccc1O [salsalate, 2-hydroxybenzoyloxy benzoic acid]
- salicylic acid obtained relative to an equivalent dose of aspirin, based on relative AUC values [2]: approximately 84%
- study withdrawal from the salsalate group for any reason [3]: 17-38%
- HbAlc level over time, F test for the overall effect of treatment group [4]: significant
